Data as given in patent US20240408112A1, “METHOD FOR PREVENTING OR TREATING PULMONARY ARTERIAL HYPERTENSION BY USING 7-DEHYDROCHOLESTEROLS OR SALTS, OXIDES, METABOLITES, OR DERIVATIVES THEREOF” (EXCELSIOR PHARMATECH LABS., priority 2023, published 2024).

What was measured:
[1] = tested on: human pulmonary artery endothelial cells (hPAEC); test: BrdU cell proliferation assay, 0.1% FBS, 100 pM TGF-β, hPAEC; type: cell-based; details: Homo sapiens, Endothelial cell
Procedure: (§1) BrdU (5-bromo-2-deoxyuridine) cell proliferation assay (BrdU assay)
(§2) A 48-well plate was used, and 1.5×10^4 cells were implanted in each well. After 24 hours, the medium was changed to serum-free culture medium and synchronized for 24 hours. A 2-fold concentration of the compound in serum-free culture medium is prepared and the cells were pretreated for 1 hour. Then, the same volume of culture medium containing 20% fetal bovine serum (FBS) was added to dilute the compound. The final concentration was 10% FBS culture medium and 1 times the concentration of the compound. In the experimental group that added TGF-β, the same volume of TGF-β culture medium containing 10 ng/mL was added, with a final concentration of 5 ng/mL TGF-β and 1 times the concentration of the compound, and in the experimental group added with TGF-β, the entire process was conducted in culture medium containing 0.1% serum. Then, BrdU reagent was added about 6 hours later, and the cells were collected the next day for enzyme-linked immunosorbent assay (ELISA) analysis, the compound treatment time was about 24 hours, and the BrdU treatment time was about 18 hours.
(§3) Five compounds to be tested were screened by cell survival assay (MTT assay) and BrdU (5-bromo-2-deoxyuridine) cell proliferation assay, and the information of these compounds was listed in Table 1 below. Tables 2 and 3 respectively listed the growth inhibitions of on human pulmonary artery endothelial cells (hPAEC), human pulmonary artery smooth muscle cells (hPASMC), normal rat pulmonary artery smooth muscle cells (rPASMC, as the control group, represented by “CON”), and rat pulmonary artery smooth muscle cells (represented by “MCT”), by the five compounds to be tested under the conditions of 10% FBS, 0.1% FBS and 100 pM TGF-β.

[2] = tested on: PAH rat pulmonary artery smooth muscle cells (rPASMC MCT); test: BrdU cell proliferation assay, 0.1% FBS, 100 pM TGF-β, rPASMC MCT; type: cell-based; details: Rattus norvegicus
Procedure: as §1, §2, §3

[3] = tested on: human pulmonary artery smooth muscle cells (hPASMC); test: BrdU cell proliferation assay, 10% FBS, hPASMC; type: cell-based; details: Homo sapiens, read-out: EC50 (concentration for 50% of maximal effect)
Procedure: as §1, §2, §3

[4] = tested on: TGF-β-stimulated PAI-1 promoter activity; test: TGF-β stimulated Pai-1 luciferase assay in MLECs-clone32 cells; type: cell-based; details: TGF-β 50 pM, 4 hours, read-out: IC50 value of compound inhibiting TGF-β-stimulated Pai-1 luciferase activity (%)
Text: TGF-β Stimulated Pai-1 Luciferase Assay
MLECs-clone32 cell line was used to measure the impact of different compounds on the downstream gene, plasminogenactivator inhibitor 1 (PAI-1) performance stimulated by TGF-β. MLECs-clone32 is an expression construct that is stably transfected for the Mv1Lu cell line, and the expression construct PAI-1 Luciferase contains a truncated (PAI-1) promoter fused to the firefly luciferase reporter gene^11,12. The activity stimulated by the truncated PAI-I promoter was quantified by using a luciferase assay. The luciferase activity stimulated by TGF-β in cells without compound treatment was set as 100%, and the effects of each compound on TGF-β-stimulated PAI-I promoter activity were compared. The steps for measuring Pai-1 luciferase activity include using a 96-well plate (DMEM medium containing 10% FBS), seeding each well with 1.5×10^5 cells, and culturing in an incubator overnight. After discarding the medium the next day, cells in DMEM medium with or without the addition of test compounds were treated with recombinant TGF-β (50 pM) and allowed to react in a 37° C. incubator for 4 hours. The cell culture medium was aspirated, washed with PBS, and the activity of Pai-1 luciferase was evaluated by luciferase assay.

[5] = tested on: human pulmonary artery smooth muscle cells (hPASMC); test: BrdU cell proliferation assay, 0.1% FBS, 100 pM TGF-β, hPASMC; type: cell-based; details: Homo sapiens
Procedure: as §1, §2, §3

[6] = tested on: human pulmonary artery endothelial cells (hPAEC); test: BrdU cell proliferation assay, 10% FBS, hPAEC; type: cell-based; details: Homo sapiens, Endothelial cell, read-out: EC50 (concentration for 50% of maximal effect)
Procedure: as §1, §2, §3

[7] = tested on: monocrotaline induced pulmonary hypertension rat; test: Monocrotaline-induced pulmonary arterial hypertension rat model, Example 2 (7-DHC, 042); type: in vivo; details: 50 mg/kg IP
Text: (§4) Pulmonary arterial hypertension animal experimental model
(§5) The present disclosure utilizes injection of monocrotaline to induce symptoms of pulmonary arterial hypertension in rats to establish a pulmonary arterial hypertension animal experimental model suitable for screening test drugs.
(§6) The diagnostic method of clinical pulmonary arterial hypertension standards is right heart catheterization, which is defined as mean pulmonary arterial pressure (mPAP) greater than or equal to 20 mmHg. The diagnostic criteria for pulmonary arterial hypertension, in addition to an increase in mean pulmonary arterial pressure, need to be combined with pulmonary vascular resistance (PVR) greater than 3 Wood unit. The right ventricle pressure (RVP) and systemic mean blood pressure (mbp) in rats with pulmonary arterial hypertension were measured by Millar Model PCU200 pressure system, and the heart rate (HR) was also monitored at the same time. After measuring the hemodynamic data, the arterial blood was extracted from the carotid artery of the pulmonary arterial hypertension rat, and the Abbott blood oximeter (i-STAT) combined with Abbott's special chip cartridge (i-STAT Cartridge G3+) was used to measure arterial gas analysis data such as pH, PaO2, PaCO2, HCO3 and base excess (BE) value in quantitative whole blood samples. The normal pH value is between 7.35 and 7.45, and the pH value indicates whether the experimental animal has the condition of acidemia, alkalemia, acidosis or alkalosis. The normal value of PaO2 is between 80 and 100 mmHg, which reflects the effectiveness of gas exchange (ventilation/perfusion). The normal value of PaCO2 is between 35 and 45 (such as 38 and 42) mmHg, which can evaluate the effectiveness of alveolar ventilation. The acid produced by food, tissue decomposition, inflammation and hypoxia rely on the lungs to excrete volatile acid CO2 (short-term) and the bicarbonate (HCO3^−) produced by the kidneys (long-term) to neutralize non-volatile acids, while the normal value of bicarbonate hydrogen radical (HCO3^−) is between 22 and 26 meq/L. BE is the base excess value, its normal value ranges from −2 to +2, the negative value represents the degree of alkali ion deficiency in the blood, a negative BE value (−) that is too high indicates metabolic acidosis, and a positive value (+) that is too high is metabolic alkalosis. At the end of the experiment, the rats were sacrificed and their hearts were removed and the left and right ventricles were separated and weighed (RV)/(S)+(LV).
Monocrotaline (MCT) was utilized to induce pulmonary hypertension rat animal model, the TGF-β receptor inhibitor 7-DHC (039) and compound No. 042 were tested via intraperitoneal (IP) administration, and the physiological parameters of the animals were collected, wherein includes measuring right ventricle pressure, systemic arterial pressure, heartbeat and right ventricle hypertrophy, as well as observing and analyzing the pulmonary artery thickening and blood oxygenation levels through pathological sections of lung tissue. Specifically, 7-DHC (039) was divided into two groups with a dosage of 10 mg/kg or 20 mg/kg, the dosage of group 042 was 50 mg/kg, each dosage group has 3 rats (n=3), while the control group (CON) and the pulmonary arterial hypertension rat group (MCT) had 6 rats (n=6) respectively.

[8] = tested on: normal rat pulmonary artery smooth muscle cells (rPASMC CON); test: BrdU cell proliferation assay, 0.1% FBS, 100 pM TGF-β, rPASMC CON; type: cell-based; details: Rattus norvegicus
Procedure: as §1
as §2, with “with a final concentration of 5 ng/mL TGF-β and 1 times the concentration” left out
Five compounds to be tested were screened by cell survival assay (MTT assay) and BrdU (5-bromo-2-deoxyuridine) cell proliferation assay, and the information of these compounds was listed in Table 1 below.

[9] = tested on: normal rat pulmonary artery smooth muscle cells (rPASMC CON); test: BrdU cell proliferation assay, 10% FBS, rPASMC CON; type: cell-based; details: Rattus norvegicus, read-out: EC50 (concentration for 50% of maximal effect)
Procedure: as §1, §2, §3

[10] = tested on: PAH rat pulmonary artery smooth muscle cells (rPASMC MCT); test: BrdU cell proliferation assay, 10% FBS, rPASMC MCT; type: cell-based; details: Rattus norvegicus, read-out: EC50 (concentration for 50% of maximal effect)
Procedure: as §1, §2, §3

[11] = tested on: monocrotaline induced pulmonary arterial hypertension rat; test: Monocrotaline-induced pulmonary arterial hypertension rat model, Example 3 (7-DHC vs macitentan); type: in vivo; details: 30 mg/kg oral
Text: as §4, §5, §6
Monocrotaline was utilized to induce pulmonary arterial hypertension rat animal model, intraperitoneal injection (IP) TGF-β receptor inhibitor 7-DHC (039) and oral administration of macitentan (soluble in methylcellulose), 7-DHC (039) was divided into two groups according to the dosage: 10 mg/kg or 20 mg/kg, and the dosage of macitentan group was 30 mg/kg.

[12] = hPAEC, 100 pM TGF-β, 0.1% FBS, read-out: EC50
[13] = MCT (PAH rPASMC), 100 pM TGF-β, 0.1% FBS, read-out: EC50
[14] = hPASMC, 100 pM TGF-β, 0.1% FBS, read-out: EC50
[15] = CON (normal rPASMC), 100 pM TGF-β, 0.1% FBS, read-out: EC50

Row | SMILES | EC50 [1, 12] | EC50 [2, 13] | EC50 [3] | IC50 [4] | EC50 [5, 14] | EC50 [6] | EC50 [8, 15] | EC50 [9] | EC50 [10] | other results
1 | O=c1cc(-c2ccccc2)oc2cc(O)c(O)c(O)c12 [Code 042, Baicalein] | 15 µM | 9 µM | 5 µM | 14.8 µM | 4 µM | 20 µM | 52 µM |  |  | Right ventricle hypertrophy (RV/S+LV), in words ([7]; compared with MCT rats): slightly lower; Weight and activity of the rats ([7]; second week of administration, sacrificed early on day 21): significantly decreased
2 | O=c1c(O)c(-c2ccc(O)c(O)c2)oc2cc(O)ccc12 [Code 050, Fisetin] | 40 µM | 79 µM |  | 44.1 µM | 35 µM |  | 106 µM |  |  | EC50 ([9]; CON (normal rPASMC), 10% FBS): 59 µM; EC50 ([3]; hPASMC, 10% FBS): 27 µM; EC50 ([10]; MCT (PAH rPASMC), 10% FBS): 38 µM; EC50 ([6]; hPAEC, 10% FBS): 22 µM
3 | CCCNS(=O)(=O)Nc1ncnc(OCCOc2ncc(Br)cn2)c1-c1ccc(Br)cc1 [Code 053, Macitentan] | 40 µM | 87 µM | 100 µM | 82.9 µM | 59 µM | 175 µM | 96 µM | 142 µM | 114 µM | Blood vessel thickening, in words [11]: reduction in blood vessel thickening was also observed; Survival rate compared with the 7-DHC (039) group, in words [11]: significantly worse; Animal survival status ([11]; 23rd day after monocrotaline induction): died; Body weight and activity of the rats ([11]; second week of administration): not greatly affected
4 | O=C(O)[C@H](O)Cc1ccc(O)c(O)c1 [Code 056, Danshensu] |  |  | 124 µM |  |  | 272 µM |  | 35 µM | 25 µM | EC50 [1]: 155 µM; EC50 [2]: 36 µM; EC50 [5]: 100 µM; EC50 [8]: 50 µM
5 | CC(C)CCC[C@@H](C)[C@H]1CC[C@H]2C34C=CC5(C[C@@H](OC(=O)CBr)CC[C@]5(C)[C@H]3CC[C@]12C)n1c(=O)n(C)c(=O)n14 (stereo partly shown) [Code 203, MeTC7] |  |  |  | 17.5 µM |  |  |  |  |  | 
